Series [1] has as its system philtrum skin (keratinized stratified epithelium). Put plainly: Philtrum assay: duration of cooling on keratinized stratified epithelium. It is filed as in vivo, human. The note with it: applied to the philtrum skin at 5 mg/mL in Aquaphor ointment. An excerpt: Bioassay on Keratinized Stratified Epithelium: Philtrum Assay
The philtrum is the midline groove above the border of the upper lip. The site of drug testing was the skin above the upper lip (above the vermilion border of the lips), on the philtrum, lateral to the philtrum until the nasolabial folds, and sometimes on the lower nostrils (subnasale). This part of the face is known to be densely innervated with cool/cold receptors, second only to the surfaces of the eyeball and anogenitalia. It is also known from the scientific literature that the area around the lips has a high density of “cold spots” (see, e.g., Dhaka et al., “Visualizing cold spots: TRPM8-expressing sensory neurons and their projections”, J. Neuroscience, Vol. 28, pp. 566-575, 2008).
To test for anti-nociceptive activity, the test substance is first dissolved (5 mg/mL) in an ointment (Aquaphor®, which is 41% petrolatum, and the rest mineral oil, ceresin and lanolin alcohol) and singly applied (40 to 70 mg) onto the philtrum skin surface using a plastic stick.
At this locus, cool and cold sensations in the skin may be experienced and rated for time of onset and intensity. The intensity of the subjective skin sensation is rated as 0, 1, 2 or 3 with: 0 as no change; 1 as slight coolness, or cold; 2 as clear-cut signal of coolness or cold; and 3 as robust cooling or cold. The intervals for recording are 5 to 10 minutes, until two successive zeroes are obtained. The onset of drug action is taken as the time to reach 2 units of coolness intensity, and offset of drug action is the time when coolness intensity drops below 2, after previously surpassing 2 units. The duration of cooling action is defined as the offset time minus the onset time.

The subject of series [2] is ocular surface (non-keratinized stratified epithelium). The experiment in a line: Ocular surface bioassay: duration of cooling after towelette wipe on closed eyelids. It is filed as in vivo, human. The note with it: for Non-Keratinized Stratified Epithelia (NKSE) Ocular Surface (min), duration of cooling: applied to the closed eyelids using a towellette at 1 mg/mL in 5%-95% v/v ethanol-distilled water; for rank order of duration of action of ocular wipes: six subjects, randomized double-blind study, three trials per wipe. As to the method: Bioassay on Non-Keratinized Stratified Epithelium: Ocular Surface
For testing on the ocular surface, a towelette containing the test compound was used as the delivery unit. The test compound was dissolved first in absolute ethanol and then distilled water was added to form a standard 1 mg/mL solution in a 3 to 5% by weight ethanol-water solution. Three mL of the test solution was then added to a 0.4 g cotton rectangle (50 mm×60 mm) (CS-being, Daisan Cotton, Japan) and individually sealed with a vacuum apparatus (Foodsaver®, Jarden Corp.). Samples were stored in a freezer or refrigerator and thawed to room temperature before use. Wiping with the cotton pad delivers 40 to 45 μL of liquid composition to the closed eyelids (˜20 to 22 μL per eye surface). Thus, if the concentration of the test compound was 1 mg/mL, the dose delivered to both eyes is a total of ˜40 to 42 μg, or ˜20 μg per eye. The presence or absence of cooling sensations felt on the ocular surface was noted as being present or absent at 5 to 10 minute intervals until no coolness was noticeable in two successive test intervals. Only the duration of cooling on the ocular surface was recorded, without an attempt to quantify the intensity of the sensation.

Series [3] has as its system oropharyngeal surface (non-keratinized stratified epithelium). Put plainly: Oropharyngeal surface bioassay: ODT followed by chili pepper sauce challenge. Type of series: in vivo, human. The arrangement: key to Non-Keratinized Stratified Epithelia (NKSE) Oropharyngeal Surface, attenuation of chili pepper sauce irritation: If there was no attenuation of the challenge stimuli, the score was (0); if there was partial inhibition, the score was (+); if there was complete attenuation of the irritant signal, the score was (++). The note with it: for Non-Keratinized Stratified Epithelia (NKSE) Oropharyngeal Surface, attenuation of chili pepper sauce irritation: ODT containing 2.5 to 3 mg of active ingredient, chili pepper sauce 45 minutes later; for effect on the response to the chili pepper sauce: same test conditions. An excerpt: Bioassay on Non-Keratinized Stratified Epithelium: Oropharyngeal Surface
A number of irritants have been evaluated for evoking the cough sensation as a measure of pharygeal sensitivity (see, e.g., Morice et al., 2001, “Cough Challenge in the Assessment of Cough Reflex”, Brit. J. Clin. Pharmacol., Vol. 52, pp. 365-375). Usually, citric acid or capsaicin is delivered via the inhalation route to volunteers and the number of coughs counted. […] The chili pepper sauce mixes with the saliva and the saliva is then deposited on the posterior oropharynx. The chili pepper sauce used was Yank Sing® Chili Pepper Sauce (YS Gourmet Productions, Inc., PO Box 26189, San Francisco, Calif. 94126) and is a well-known condiment for use with dim sum (Chinese tea lunch). The sensations associated with the chili pepper sauce are located in the posterior wall of the mouth and are clearly recognized by the test subject and associated with a desire to clear the throat.
The ODT was formulated by taking an ingredient, dissolving it in absolute ethanol, and then adding 10% by weight of maltitol, and 90% by weight of mannitol, and then an equal volume of distilled water. The mixture was the stirred with a glass rod, and dispensed onto a piece of wax paper with a disposable plastic pipette. The individual dried tablets weighed on average 150 mg each and when on the dorsal surface of the tongue, dissolved completely in saliva and coated the oropharyngeal surface. On average, the amount of the test substance was 2.5 to 3 mg per tablet.
To test for anti-nociceptive activity, the ODT containing the test compound was first administered onto the dorsal surface of the tongue; 45 to 50 minutes later, the chili-pepper sauce challenge is administered. At this time, the coolness sensations from the test compound have dissipated and the test is to determine if an anti-nociceptive effect remains. Results were reported as follow: If there was no attenuation of the challenge stimuli, the score was (0), if there was partial inhibition, the score was (+), and if there was complete attenuation of the irritant signal, the score was (++). In the presence of an ODT containing an active ingredient that results in a (++) score, the irritative signals were completely absent, yet the salty taste used in the soy sauce of the condiment could be readily identified and tasted.
In one formulation (used in the biological evaluation studies described herein), orally disintegrating tablets (ODTs) were prepared using an 80:20 by weight mixture of mannitol-maltitol (Pearlitol™ and Sweetpearl™, Roquette Freres, France). This carrier has the advantage of completely masking bitter tastes that might be present in some of the test compounds. The test compound was first mixed with the mannitol-maltitol using a mortar and pestle, and then suspended in an equal volume of 10:90 v/v ethanol-distilled water. A disposable pipette was then used to aliquot the liquid mixture onto a sheet of wax paper and dried at room temperature. The dried tablets were then weighed and sorted. It was found by experiment that an 80 mg tablet containing 2 to 3 mg of test compound dissolved within 15 seconds when placed on the dorsal surface of the tongue and provided a good test dose.

Series [4] relates to dorsal surface of the tongue. Conditions: 6 subjects; filter paper on dorsal surface of tongue, 30 seconds; cited from earlier work.
The test system of a further series is TA1535 strain. Conditions: MSDS Number 2984; cited from earlier work.

`CCCCOC(=O)CNC(=O)[C@@H]1C[C@H](C)CC[C@H]1C(C)C` [Gly-O-nBu, [((1R,2S,5R)-2-isopropyl-5-methyl-cyclohexanecarbonyl)-amino]-acetic acid n-butyl ester]: in series [1], the “Keratinized Stratified Epithelia Philtrum Skin (min), duration of cooling” value was determined as 38 min. Also, the “Non-Keratinized Stratified Epithelia (NKSE) Ocular Surface (min), duration of cooling” value in series [2] came to 35 min. In series [3], the “Non-Keratinized Stratified Epithelia (NKSE) Oropharyngeal Surface, attenuation of chili pepper sauce irritation” value is on record as 0.
With `COC(=O)CNC(=O)[C@@H]1C[C@H](C)CC[C@H]1C(C)C` [Gly-O-Me, [((1R,2S,5R)-2-isopropyl-5-methyl-cyclohexanecarbonyl)-amino]-acetic acid methyl ester], the “Keratinized Stratified Epithelia Philtrum Skin (min), duration of cooling” value in series [1] is reported as 10 min. Moreover, the “Non-Keratinized Stratified Epithelia (NKSE) Ocular Surface (min), duration of cooling” value in series [2] was 5 min. Moreover, the “Non-Keratinized Stratified Epithelia (NKSE) Oropharyngeal Surface, attenuation of chili pepper sauce irritation” value in series [3] is 0.
In the case of `CC(C)[C@@H]1CC[C@@H](C)C[C@H]1O` [(−)-menthol, (1R,2S,5R)-2-isopropyl-5-methyl-cyclohexanol], the “average Threshold for cooling on the tongue” value in series [4] is 0.25 µg.
With `CCCOC(=O)CNC(=O)[C@@H]1C[C@H](C)CC[C@H]1C(C)C` [Gly-O-nPr, [((1R,2S,5R)-2-isopropyl-5-methyl-cyclohexanecarbonyl)-amino]-acetic acid n-propyl ester], the “Keratinized Stratified Epithelia Philtrum Skin (min), duration of cooling” value in series [1] amounted to 42 min. In addition, in series [2], the “Non-Keratinized Stratified Epithelia (NKSE) Ocular Surface (min), duration of cooling” value was 54 min and the “rank order of duration of action of ocular wipes” value is “Gly-O-iPr>>Gly-O-nPr>Gly-O-Et”. Moreover, in series [3], the “Non-Keratinized Stratified Epithelia (NKSE) Oropharyngeal Surface, attenuation of chili pepper sauce irritation” value stood at 0. Further, in series [3] (ODT), the “effect on the response to the chili pepper sauce” value is recorded as “not effective”.
Turning to `CCOC(=O)CNC(=O)[C@@H]1C[C@H](C)CC[C@H]1C(C)C` [Gly-O-Et, [((1R,2S,5R)-2-isopropyl-5-methyl-cyclohexanecarbonyl)-amino]-acetic acid ethyl ester], the “Keratinized Stratified Epithelia Philtrum Skin (min), duration of cooling” value in series [1] is 24 min. In series [2], the “Non-Keratinized Stratified Epithelia (NKSE) Ocular Surface (min), duration of cooling” value turned out to be 15 min and the “rank order of duration of action of ocular wipes” value is “Gly-O-iPr>>Gly-O-nPr>Gly-O-Et”. The “increase in duration of cooling on the ocular surface” value in series [2] (concentration increased from 1 mg/mL to 2 mg/mL) came to 15 min. For the same compound, in series [2] (concentration increased from 1 mg/mL to 5 mg/mL), the “increase in duration of cooling on the ocular surface” value was 22 min. In series [3] (ODT), the “sensation on the oropharyngeal surface” value is on record as “refreshing cooling sensation” and the “effect on the response to the chili pepper sauce” value was “not effective”. The “Non-Keratinized Stratified Epithelia (NKSE) Oropharyngeal Surface, attenuation of chili pepper sauce irritation” value in series [3] turned out to be 0. Further, in the series on TA1535 strain, the “mutagenicity, Ames test” value was “weakly mutagenic”.

The values are drawn from patent publication US8426463B2, “[((1R,2S,5R)-2-isopropyl-5-methyl-cyclohexanecarbonyl)-amino]-acetic acid isopropyl ester and related compounds and their use in therapy” (priority 2011, dated 2013).
